From patent US10858422B2, “Methods for treating systemic lupus erythematosus with an anti-apolipoprotein B antibody” (Abcentra, LLC, priority 2016, dated 2020)
Marks after values point to notes of the source that are not given here.

What was measured:
[1] = tested on: Spleen T-cells from gld.apoE−/− mice; assay: Cytokine production from spleen T-cells activated by CD3/CD28; format: in vivo, mouse; settings: Avg; for IFN-γ production / IL-6 production / IL-10 production / IL-12 (p70) production: Normal Diet; for TNFα Production from Spleen T-cells: Western Diet
Experimental: Lymph nodes and spleen were harvested and weighed. Splenocytes were isolated and analyzed for T-regulatory cell populations by immunofluorescence staining and flow cytometry. Splenocytes were also cultured and T-cells activated in vitro by Mouse T-Activator CD3/CD28. Production of cytokines INF-γ, IL-6, IL-10, IL-12, and […] by activated T-cells were assessed with immunoassays.
CVX-12 immunization is hypothesized to impact atherosclerosis via modulation of T-cell cytokine release. Thus cytokine release by cultured splenocytes activated by CD3 and CD28 was assessed for the cytokines IFNγ, IL-6, IL-10, IL-12 (p70), and TNFα (Tables 6-12). CVX-12 immunization increased IL-6 and IL-10 cytokine release from spleen T-cells in apoE^−/− mice. […] IL-10 release from gld.apoE^−/− splenocytes was decreased by CVX-12 immunization of gld.apoE^−/− mice on western diet.

gld.apoE−/− mice = assay: Relative anti-P210 IgM/IgG antibody levels in serum (ELISA); format: in vivo, mouse; settings: normal diet (ND), ± SEM
Experimental: Each animal dosed with a test article received subcutaneous primary immunization in the dorsal interscapular area at Day 0 (7 weeks of age), followed by a booster on Day 21 and 35 (10 and 12 weeks of age). CVX-3-84 was used to dose ApoE^−/− (n=20), gld mice (n=20). CVX-3-123 was used to dose gld.ApoE^−/− (n=30 on high cholesterol chow; n=30 on normal chow diet).
20 gld.ApoE^−/− mice in the positive control group received an oral dose of rosiglitazone at 10 mg/kg/day in normal chow starting on Day 0 (7 weeks of age) and continuing for the duration of the study period. Mice receiving Rosiglitazone were sacrificed at Day 126 (25 weeks of age).
Serum and urine was collected at day 63 of the study (16 weeks of age). Serum collected at day 63 of the study was analyzed for anti-P210 IgM and IgG antibodies. Levels of oxidized phospholipid was also measured in gld.apoE^−/− mice maintained on normal diet.
Serum and urine was collected at euthanasia. Endpoint serum was analyzed for anti-nuclear antibody (ANA) titers, total cholesterol, triglycerides, anti-P210 IgM antibodies, and anti-P210 IgG antibodies. Endpoint serum from gld.ApoE^−/− animals maintained on normal diet was also analyzed for anti-cardiolipin antibodies. Anti-nuclear antibody titers were tested using the NOVA-lite Hep2 ANA assay, and serum dilutions of 1:100, 1:1000, 1:10000, 1:30000, and 1:90000 were tested for nuclear-localized antibody reactivity to human epithelial cells. Reactivity was detected using FITC-conjugated goat anti-mouse IgG antibody. ANAs were scored based on the presence or absence of antibody signal at each titer. Total cholesterol was assessed using Cholesterol E reagent according to the manufacturer's protocol. Triglyceride levels were assessed with Triglyceride Reagent and with a glycerol standard. Anti-P210 antibodies were detected by ELISA using reconstituted P210 peptide.

MRL/lpr ApoE−/− mice = assay: Flow cytometry of blood, spleen and lymph node cells after oral immunization; format: in vivo, mouse; settings: 30 μg/ml
human PBMC = assay: Death receptor activation of human PBMC: release of soluble death receptors, apoptosis; format: cell-based; settings: for release of Fas into culture medium / release of TNF-R1: healthy donor PBMC, Fas ligand 0.5 μg/ml, IL-1β 10 ng/ml, TNF 10 ng/ml, LPS 10 μg/ml
Text: PBMCs from SLE patients (n=6, x female and x male, age x+/−x years) and matched healthy controls (n=6, x female and x male, age x+/−x years) as well as from a healthy donor were isolated using FicollPaque Plus (GE healthcare, Waukesha, Wis., USA) density gradient centrifugation according to manufacturer's instructions. The cells from SLE patients and controls were resuspended in 40% autologous serum, 40% RPMI 1640 medium (Thermo Fisher Scientific, Waltham, Mass., USA) and 20% dimethyl sulfoxide (Sigma Aldrich, St. Louis, […]., USA) and frozen in liquid nitrogen.
(§1) Cells from healthy donors were seeded freshly at a density of 0.5×10^6 cells per well in complete RPMI (10 U/ml Penicillin/streptomycin, 1% L-glutamine, 1% sodium pyruvate, 1% Hepes and 0.1% mercaptoethanol) with 2% FBS (HyClone South Logan, Utah, USA). For death receptor activation, IL-1β, soluble Fas ligand, TNF (Peprotech, Rocky Hill, N.J., USA) and LPS (Sigma Aldrich) were used at a concentration of 10 ng/ml, 0.5 μg/ml, 10 ng/ml and 10 μg/ml respectively.
as §1, with “from a” for “from”, “donor” for “donors”, “TNFα” for “TNF”
Cell supernatants from death receptor activated PBMCs from a healthy donor and SLE patients/controls were used for measurement of soluble Fas, TNF-R1 and TRAIL-R2 with a magnetic bead system multiplex assay (R&D Systems, Minneapolis, Minn., USA) obtained by Luminex machine (Bio-Rad). For SLE patients and controls, TNF-R1 concentration was measured with ELISA (Abcam) according to manufacturer's recommendations.

CN(CCOc1ccc(CC2SC(=O)NC2=O)cc1)c1ccccn1 (stereo not shown) [Rosiglitazone]
IFN-γ production ([1]; Stimulated): 11419.9 pg/mL
IL-6 production ([1]; Stimulated): 385.0* pg/mL
IL-10 production ([1]; Stimulated): 1528.3 pg/mL
IL-12 (p70) production ([1]; Stimulated): 44.7 pg/mL
IFN-γ production ([1]; Unstimulated): 24.2* pg/mL
IL-6 production ([1]; Unstimulated): 255.9* pg/mL
IL-10 production ([1]; Unstimulated): 196.0 pg/mL
IL-12 (p70) production ([1]; Unstimulated): 89.2 pg/mL
TNFα Production from Spleen T-cells ([1]; Stimulated (CD3/CD28)): 39.5 pg/mL
TNFα Production from Spleen T-cells ([1]; Unstimulated): 8.9 pg/mL
anti-P210 IgG (gld.apoE−/− mice; Endpoint): 0.68 ± 0.07 OD at 405 nm
anti-P210 IgM (gld.apoE−/− mice; Endpoint): 0.42 ± 0.06 ^a, c OD at 405 nm
anti-P210 IgG (gld.apoE−/− mice; Midpoint): 0.68 ± 0.07 OD at 405 nm
anti-P210 IgM (gld.apoE−/− mice; Midpoint): 0.64 ± 0.03 OD at 405 nm

CTB
central memory T cells in lymph node (MRL/lpr ApoE−/− mice): 34.5±10.6%
central memory helper T cells (CD3+CD4+CD62L+CD44int-hi) in spleen (MRL/lpr ApoE−/− mice): 19.4±5.2%
cytolytic T cell populations (CD3+CD8+CD62L+CD44int-hi) in spleen (MRL/lpr ApoE−/− mice): 18.2±3.7%

IL-1β: cytokine stimulus, 10 ng/ml [reference compound]
release of Fas into culture medium (human PBMC): no effect
release of TNF-R1 (human PBMC): stimulated

TNF-α [reference compound]
release of Fas into culture medium (human PBMC): no effect
release of TNF-R1 (human PBMC): no effect

B1: Fas ligand: soluble Fas ligand used for death receptor activation of PBMC (protein)
chain: PSPPPEKKELRKVAHLTGKSNSRSMPLEWEDTYGIVLLSGVKYKKGGLVINETGLYFVYSKVYFRGQSCNNLPLSHKVYMRNSKYPQDLVMMEGKMMSYCTTGQMWARSSYLGAVFNLTSADHLYVNVSELSLVNFEESQTFFGLYKL
increase in the release of FAS (human PBMC; PBMCs from SLE patients): 73%
frequency of apoptotic lymphocytes (human PBMC; PBMCs from healthy controls (not in PBMCs from SLE patients)): increased
release of Fas into culture medium (human PBMC): stimulated
release of TNF-R1 (human PBMC): stimulated
